Results taken from ChEMBL document CHEMBL3108750, “Solution structure of a sponge-derived cystine knot peptide and its notable stability” (J Nat Prod, 2014).
Positions of bridges follow the written chain, without caps; N, C: chain ends. Residues, ends and D or L forms follow the SMILES beside them.

Experiments:
[1] = Cytotoxicity against human MCF10A cells assessed as cell viability up to 50 uM after 48 hrs by MTT assay; assay type: cell-based; settings: mcf-10a
[2] = Cytotoxicity against human HK2 cells assessed as cell viability up to 50 uM after 48 hrs by MTT assay; assay type: cell-based; settings: hk-2, 48 h

Structure (SMILES): CC[C@H](C)[C@H](NC(=O)[C@@H](NC(=O)[C@H](Cc1ccc(O)cc1)NC(=O)[C@@H]1CSSC[C@@H]2NC(=O)[C@@H]3CCCN3C(=O)[C@H](CC(N)=O)NC(=O)[C@H](Cc3ccccc3)NC(=O)[C@H](CCC(=O)O)NC(=O)[C@H](C(C)C)NC(=O)[C@H](CC(=O)O)NC(=O)[C@@H]3CSSC[C@H](NC(=O)[C@H]([C@@H](C)O)NC(=O)[C@H](CC(C)C)NC(=O)[C@@H]4CCCN4C(=O)[C@@H]4CCCN4C(=O)[C@H](CSSC[C@H](N)C(=O)N4CCC[C@H]4C(=O)NCC(=O)N[C@@H](CCC(=O)O)C(=O)NCC(=O)N[C@@H](CCC(=O)O)C(=O)N[C@@H](CCC(N)=O)C(=O)N3)NC2=O)C(=O)N[C@@H]([C@@H](C)CC)C(=O)N2CCC[C@H]2C(=O)NCC(=O)N[C@@H](CC(=O)O)C(=O)N2CCC[C@H]2C(=O)N[C@@H](Cc2ccc(O)cc2)C(=O)NCC(=O)N[C@@H]([C@@H](C)CC)C(=O)N1)[C@@H](C)CC)C(=O)O (H-CPGEGEQCDVEFNPCCPPLTCIPGDPYGICYII-OH; disulfide 1-16, 8-21, 15-30)
- Activity [1]: Non-toxic
- Activity [2]: Non-toxic
